Assay results as given in patent US10905738B2, “Synthetic peptides, prodrugs, pharmaceutical compositions and uses” (Biozeus Desenvolvimento De Produtos Biofarmacêuticos, priority 2018, dated 2021).
Where a SMILES comes first, the peptide text is derived from it.

How the values were obtained:
[1] = system: smooth muscle of tracheal rings; assay: spasmodic contraction of tracheal rings ex vivo (histamine-induced); design: species or system Dunkin-Hartley guinea pigs; conditions: for Effectiveness (Emax) (%): relaxation of tracheal rings contracted by histamine (50 μM); for Effectiveness (Emax) (%) / Potency (pEC50) Molar: mean±SEM; for Potency (pEC50) Molar: tracheal rings contracted by histamine (50 μM), peptides 0.01 to 10 μM
Protocol: The magnitude of the relaxing effect of the peptides was evaluated by means of a model of spasmodic contraction of tracheal rings ex vivo, largely employed to test new bronchodilating agents (see CULLUM, V. A., FARMER, J. B., JACK, D., LEVY, G. P. Salbutamol: a new, selective β-adrenoceptive receptor stimulant. British journal of pharmacology, 35(1): 141-151. 1969; KAO, C. H., CHU, Y. H., WANG, H. W. Effects of lidocaine on rat's isolated tracheal smooth muscle. European Archives of Oto-Rhino-Laryngology, 267(5): 817-820. 2010; SORIANO-URSÚA, M. A., VALENCIA-HERNÁNDEZ, I., ARELLANO-MENDOZA, M. G., CORREA-BASURTO, J., TRUJILLO-FERRARA, J. G. Synthesis, pharmacological and in silico evaluation of 1-(4-dihydroxy-3, 5-dioxa-4-borabycyclo [4.4.0] deca-7,9,11-trien-9-yl)-2-(tert-butylamine) ethanol, a compound designed to act as a β2 adrenoceptor agonist. European journal of medicinal chemistry, 44(7): 2840-2846. 2009).
For each test, Dunkin-Hartley guinea pigs (400-500 g) were euthanized in a CO2 atmosphere; subsequently, the trachea was exposed, removed and sectioned in segments of 1 to 3 cartilaginous tracheal rings. Each segment was transferred to an individual organ bath system containing Krebs nutritive solution (NaCl 118 mM; KCl […]; CaCl2) 2.5 mM; MgSO4 1.2 mM; KH2PO4 1.2 mM; NaHCO324 mM; glucose 11 mM) at 37° C., under constant aeration with a carbogenic mixture (95% of O2 and 5% of CO2). In each system, a stem fixed to the base of the container and another connected to an isometric transducer (GRASS FT-03) made up the support of the fragments. A data digitizing system connected to the isometric transducer allowed the recording of tension variations produced by the contraction of the tracheal rings (PowerLab™ 16/30, LabChart, version 8.1, AD Instruments, Australia). The basal tension was adjusted to 1 g, and subsequently, the contractility of the fragments was evaluated by a stimulus with carbachol (2.5 μM). After 1 h at rest, the basal tension was recovered and the tissues were subjected to contraction induced by histamine (50 μM) followed by exposure to increasing concentrations of the treatments (0.01 to 10 μM; n=8) or the comparator PnTx(19).
Table 1 lists the mean±SEM of the potency values, shown as the negative logarithm of the concentration that reduced the voltage to 50% of the maximum Histamine-induced contraction (pEC50), and efficacy (Emax), calculated from at least 8 independent tests using the sigmoid nonlinear regression equation of the software Graph Prism 5.0 (GraphPad Software, La Jolla, Ca, USA).

[2] = system: house dust mite (HDM) sensitized A/J mice; assay type: in vivo, Male A/J mice; conditions: 10 nMol and 30 nMol per animal, 6 h after intratracheal instillation
Protocol: Male A/J mice (18-20 g), were sensitized by house dust mite (HDM) to established acute allergic asthma according to the protocol of Haspelagh et al (HASPESLAGH, E., DEBEUF, N., HAMMAD, H., LAMBRECHT, B. N. Murine Models of Allergic Asthma. Methods Mol Biol, 1559:121-136. 2017). Inflammatory cell infiltrations in the bronchoalveolar lavage fluid (BALF) were analyzed by flow cytometry.
The mice (n=5 per group) were treated with vehicle (PBS), SEQ ID NO: 19, SEQ ID NO: 24 or PnTx(19), at doses of 10 nMol and 30 nMol per animal, by intratracheal instillation, and material were collected 6 hours post-challenge.

Row | SMILES | Effectiveness (Emax) (%) [1] [%] | Potency (pEC50) Molar [1] [Molar] | neutrophil accumulation in the bronchoalveolar space [2] | relaxing effect on airway (tracheal ring) smooth muscle, in words ([1]; histamine-induced contraction ex vivo)
1 | CC[C@H](C)[C@H](NC(=O)[C@H](Cc1c[nH]c2ccccc12)NC(=O)[C@H](Cc1ccccc1)NC(C)=O)C(=O)N[C@@H](C)C(=O)N[C@@H](Cc1c[nH]c2ccccc12)C(=O)N[C@@H](Cc1ccc(O)cc1)C(=O)N[C@@H](CCCCN)C(=O)N[C@@H](CC(C)C)C(=O)N[C@@H](C)C(N)=O [SEQ ID NO: 19, Ac-Phe-Trp-Ile-Ala-Trp-Tyr-Lys-Leu-Ala-NH2] (Ac-FWIAWYKLA-NH2) | 40.0 ± 3.4 | 7.3 ± 0.4 | did not induce neutrophil accumulation | 
2 | CC[C@H](C)[C@H](NC(C)=O)C(=O)N[C@@H](C)C(=O)N[C@@H](Cc1c[nH]c2ccccc12)C(=O)N[C@@H](Cc1ccc(O)cc1)C(=O)N[C@@H](CCCCN)C(N)=O [SEQ ID NO: 24, Ac-Ile-Ala-Trp-Tyr-Lys-NH2] (Ac-IAWYK-NH2) | 29.0 ± 1.0 | 7.9 ± 0.3 | did not induce neutrophil accumulation | effective
